Test results as given in patent publication US20210330648A1, “Pharmaceutical composition and use thereof” (ALPHALA CO., LTD., priority 2020, published 2021).
In brackets after ≈: the same amount, converted by molar mass.

Legend:
[1] = In vitro dissolution testing, USP apparatus Type 2 (paddles); assay type: physicochemical; details: pH 6.8 phosphate buffer with 0.25% SDS, 900 mL, 75 rpm, 37° C.
Method: In vitro dissolution testing was performed using an USP dissolution apparatus Type 2 (paddles) at 75 rpm (250 rpm at infinity) using 900 mL phosphate buffer pH 6.8 with 0.25% w/v SDS as the dissolution medium at 37 0.5° C.

[2] = Solubility in buffers or solutions, LC-MS/MS; assay type: physicochemical; details: for Solubility (mg/ml): 37° C., 24 hrs
Method: The method for measuring the solubilities of the formulations is briefly described. The test formulation was added into indicated buffers or solutions (ddH2O or 0.9% saline, pH 7.4) to the final concentration of 3 mg/mL, followed by sonicating for 30 mins. Next, the mixture was put into 37° C. water bath for 24 hrs. The mixture was mixed well by vortex and 1 mL of mixture was transferred into the 1.5 mL eppendorf tube, followed by centrifuging at 20817 xg for 30 mins. 10 μL of the supernatant was collected, and the concentration of the collected supernatant was determined by LC-MS/MS.

[3] = indicates poor aqueous solubility but good membrane permeability; cited from earlier work
[4] = Oral bioavailability / pharmacokinetics in Beagle dogs; assay type: in vivo; details: dog, plasma, pH 7.4, IV bolus, 40 to 50 mg, vehicle 0.1M NaHCO3 pH7.4, read-out: AUC (area under the curve) of IV bolus
Method: Briefly, three healthy, research Beagle dogs, aged 4˜10 years and body weight 9˜12 kg were used. The pharmacokinetics experiments have intravenous bolus (IV bolus) and oral groups.
For the IV bolus and oral groups, the dogs received the drugs after fasting for 4 hours, and the blood samples of the dogs were taken before administration. The blood samples were collected at pre-assigned times (10 min, 1 hr, 2 hr, 4 hr, 5 hr, 7 hr and 24 hr) after administration. The concentrations of the drug in plasma were determined with validated high performance liquid chromatography.
The plasma concentration data were analyzed and modeled by the non-compartmental analysis to obtain pharmacokinetics parameters.

Structure (SMILES) | In vitro dissolution ([1]; 0 min) [%] | In vitro dissolution ([1]; 5 min) [%] | In vitro dissolution ([1]; 10 min) [%] | In vitro dissolution ([1]; 15 min) [%] | In vitro dissolution ([1]; 20 min) [%] | In vitro dissolution ([1]; 30 min) [%] | In vitro dissolution ([1]; 45 min) [%] | In vitro dissolution ([1]; 60 min) [%] | In vitro dissolution ([1]; 90 min) [%] | In vitro dissolution ([1]; 120 min) [%] | Solubility (mg/ml) ([2]; H2O (pH 7.0)) | Solubility (mg/ml) ([2]; Saline (pH 7.4)) | solubility at 24 h ([2]; USP pH 6.8 buffer, aqueous buffer, thermodynamic from solid, USP pH 6.8, 37° C.) [µg/mL] | Biopharmaceutical Classification System (BCS) class [3] | AUC [4] [ng·h/mL]
CCOC(=O)CCNC(=O)c1ccc(N[C@H](c2ccc(-c3nnc(-c4ccccc4)o3)cc2)C(C)C)cc1 [ALP001E] | 0.00 | 4.40 | 3.69 | 4.73 | 2.87 | 1.18 | 1.26 | 2.11 | 2.77 | 13.04 | <LOQ | <LOQ | 0.44 (≈ 0.858 µM) | Class II | 
CC(C)[C@H](Nc1ccc(C(=O)NCCC(=O)O)cc1)c1ccc(-c2nnc(-c3ccccc3)o2)cc1 [ALP001] |  |  |  |  |  |  |  |  |  |  |  |  |  |  | 2180
